Values belong to the molecule of their own block, whether it stands above or below them. The source made the active and inactive calls. The calls are words filed in the database; no cut-off is given here.
Legend:
[1] = biological target: T1, Phosphatidylinositol 4,5-bisphosphate 3-kinase catalytic subunit alpha isoform (Homo sapiens, UniProt P42336); assay: Inhibition of PI3Kalpha (unknown origin) using PIP2 as substrate incubated for 1 hr in presence of ATP under irradiation with 365 nm UV light by ADP-Glo luminescent assay
T1 sequence (P42336 whole entry, canonical isoform): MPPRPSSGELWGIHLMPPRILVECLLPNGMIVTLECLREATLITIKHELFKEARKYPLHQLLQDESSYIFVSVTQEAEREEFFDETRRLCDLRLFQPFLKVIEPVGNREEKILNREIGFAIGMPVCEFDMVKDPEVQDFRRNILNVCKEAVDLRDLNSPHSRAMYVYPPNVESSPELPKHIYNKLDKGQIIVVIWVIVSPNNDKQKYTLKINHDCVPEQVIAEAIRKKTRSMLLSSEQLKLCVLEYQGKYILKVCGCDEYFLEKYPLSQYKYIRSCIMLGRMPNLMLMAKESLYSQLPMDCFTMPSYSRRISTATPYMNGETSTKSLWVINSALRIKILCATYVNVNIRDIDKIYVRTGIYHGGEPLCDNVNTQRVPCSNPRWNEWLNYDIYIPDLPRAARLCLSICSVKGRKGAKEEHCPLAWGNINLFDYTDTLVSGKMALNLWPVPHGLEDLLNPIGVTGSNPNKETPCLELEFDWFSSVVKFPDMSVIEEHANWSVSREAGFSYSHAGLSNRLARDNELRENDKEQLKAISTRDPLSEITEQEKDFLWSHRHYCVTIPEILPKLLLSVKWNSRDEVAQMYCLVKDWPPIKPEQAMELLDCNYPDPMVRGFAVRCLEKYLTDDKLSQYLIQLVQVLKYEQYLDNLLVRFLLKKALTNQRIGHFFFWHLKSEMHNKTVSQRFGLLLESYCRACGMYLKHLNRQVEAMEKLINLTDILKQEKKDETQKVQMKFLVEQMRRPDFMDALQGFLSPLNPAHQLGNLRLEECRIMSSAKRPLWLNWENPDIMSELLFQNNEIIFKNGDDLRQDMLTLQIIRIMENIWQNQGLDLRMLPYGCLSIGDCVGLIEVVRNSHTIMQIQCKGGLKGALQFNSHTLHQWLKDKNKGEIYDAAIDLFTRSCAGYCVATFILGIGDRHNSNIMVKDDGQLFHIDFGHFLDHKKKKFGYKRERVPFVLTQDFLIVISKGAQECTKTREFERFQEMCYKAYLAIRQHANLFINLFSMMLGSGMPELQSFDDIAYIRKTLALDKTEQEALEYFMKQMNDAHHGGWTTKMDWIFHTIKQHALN

[2] = system: NCI-H460; assay: (§1) Induction of apoptosis in human NCI-H460 cells harboring PI3KCA mutation and overactive PI3K pathway assessed as late apoptotic cells at 0.08 uM incubated for 48 hrs under irradiation with 365 nm UV light 2 mins once for every 8 hrs by Annexin V-FITC/PI staining based flow cytometry analysis (reference value: 2.27%); type: functional
[3] = biological target: RAC-alpha serine/threonine-protein kinase (Homo sapiens) (UniProt P31749); assay: Inhibition of AKT phosphorylation at T308 residue in human HGC-27 cells harboring PI3KCA mutation and overactive PI3K pathway at 0.08 to 0.4 uM compound irradiated for 5 mins at 520 nm by Western blot analysis; type: cell-based; details: dose 0.08-0.4 µM
Sequence of RAC-alpha serine/threonine-protein kinase (Homo sapiens) (P31749 whole entry): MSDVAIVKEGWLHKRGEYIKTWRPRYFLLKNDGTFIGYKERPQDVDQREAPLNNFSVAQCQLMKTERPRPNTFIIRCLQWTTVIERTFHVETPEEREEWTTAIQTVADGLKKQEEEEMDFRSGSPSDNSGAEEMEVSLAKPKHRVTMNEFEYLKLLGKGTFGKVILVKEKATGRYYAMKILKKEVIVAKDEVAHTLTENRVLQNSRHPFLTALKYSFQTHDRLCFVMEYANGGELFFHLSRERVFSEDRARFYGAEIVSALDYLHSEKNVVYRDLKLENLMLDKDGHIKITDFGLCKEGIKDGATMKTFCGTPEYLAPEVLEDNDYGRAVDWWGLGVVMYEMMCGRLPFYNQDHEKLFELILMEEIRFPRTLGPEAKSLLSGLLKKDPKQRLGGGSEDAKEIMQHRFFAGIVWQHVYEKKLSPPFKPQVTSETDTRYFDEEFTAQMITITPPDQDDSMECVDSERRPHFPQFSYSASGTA

[4] = system: NCI-H460; assay: as §1, with “early” for “late”, “0.4” for “0.08”, “2.6%)” for “2.27%)”; type: functional
[5] = biological target: T2, Ribosomal protein S6 kinase (Homo sapiens) (UniProt P51812+Q9UBS0+O75676+Q15349+O75582+P23443+Q9UK32+Q15418); assay: Inhibition of S6 phosphorylation in human HGC-27 cells harboring PI3KCA mutation and overactive PI3K pathway by Western blot analysis; type: cell-based; details: dose 0.08-0.4 µM
[6] = system: HGC-27; assay: as §1, with “HGC-27” for “NCI-H460”, “0.4” for “0.08”, “3.39%)” for “2.27%)”; type: functional
[7] = system: NCI-H460; assay: as §1, with “early” for “late”, “2.6%)” for “2.27%)”; type: functional
[8] = system: HGC-27; assay: as §1, with “HGC-27” for “NCI-H460”, “early” for “late”, “2.26%)” for “2.27%)”; type: functional
[9] = system: HGC-27; assay: Inhibition of colony formation in human HGC-27 cells harboring PI3KCA mutation and overactive PI3K pathway assessed as reduction in number of colonies incubated for 10 days in presence of irradiation at 365 nm UV light for 2 mins once every 8 hrs by crystal violet staining based assay; type: functional, cell-based; details: dose 0.08-0.4 µM, time 10.0 day
[10] = system: HGC-27; assay: Inhibition of cell migration in human HGC-27 cells harboring PI3KCA mutation and overactive PI3K pathway assessed as reduction in migratory ability at 0.08 to 0.4 uM incubated for 16 hrs in presence of irradiation at 365 nm UV light for 2 mins once every 8 hrs by crystal violet staining based assay; type: functional; details: dose 0.08-0.4 µM
[11] = biological target: RAC-alpha serine/threonine-protein kinase (Homo sapiens) (UniProt P31749); assay: Inhibition of AKT phosphorylation at S473 residue in human HGC-27 cells harboring PI3KCA mutation and overactive PI3K pathway by Western blot analysis; type: cell-based; details: dose 0.08-0.4 µM
[12] = system: HGC-27; assay: as §1, with “HGC-27” for “NCI-H460”, “early” for “late”, “0.4” for “0.08”, “2.26%)” for “2.27%)”; type: functional
[13] = system: NCI-H460; assay: as §1, with “0.4” for “0.08”; type: functional
[14] = system: HGC-27; assay: (§2) Antitumor activity against CM-Dil labeled human HGC-27 cells implanted in yolk sac of Albino wild type zebrafish embryos assessed as inhibition of tumor growth by measuring reduction in fluorescence density at 0.391 to 0.781 ng per fish incubated for 48 hrs in presence of irradiation with 365 nm UV light by fluorescence microscopic analysis; type: functional, cell-based; details: dose 0.391-0.781 ng
[15] = biological target: RAC-alpha serine/threonine-protein kinase (Homo sapiens) (UniProt P31749); assay: Inhibition of AKT phosphorylation at S473 residue in human HGC-27 cells harboring PI3KCA mutation and overactive PI3K pathway at 0.08 to 0.4 uM compound irradiated for 5 mins at 520 nm by Western blot analysis; type: cell-based; details: dose 0.08-0.4 µM
[16] = biological target: RAC-alpha serine/threonine-protein kinase (Homo sapiens) (UniProt P31749); assay: Inhibition of AKT phosphorylation at T308 residue in human HGC-27 cells harboring PI3KCA mutation and overactive PI3K pathway by Western blot analysis; type: cell-based; details: dose 0.08-0.4 µM
[17] = system: HGC-27; assay: as §1, with “HGC-27” for “NCI-H460”, “3.39%)” for “2.27%)”; type: functional
[18] = biological target: T2, Ribosomal protein S6 kinase (Homo sapiens); assay: Inhibition of S6 phosphorylation in human HGC-27 cells harboring PI3KCA mutation and overactive PI3K pathway at 0.08 to 0.4 uM compound irradiated for 5 mins at 520 nm by Western blot analysis; type: cell-based; details: dose 0.08-0.4 µM
[19] = biological target: RAC-alpha serine/threonine-protein kinase (Homo sapiens) (UniProt P31749); assay: Inhibition of AKT phosphorylation at S473 residue in human HGC-27 cells harboring PI3KCA mutation and overactive PI3K pathway at 0.08 to 0.4 uM compound irradiated for 2 mins at 365 nm by Western blot analysis; type: cell-based; details: dose 0.08-0.4 µM
[20] = system: HGC-27; assay: Induction of apoptosis in human HGC-27 cells harboring PI3KCA mutation and overactive PI3K pathway assessed as early apoptotic cells at 0.08 uM incubated for 48 hrs under dark condition by Annexin V-FITC/PI staining based flow cytometry analysis (reference value: 2.26%); type: functional
[21] = system: HGC-27; assay: Induction of apoptosis in human HGC-27 cells harboring PI3KCA mutation and overactive PI3K pathway assessed as late apoptotic cells at 0.08 uM incubated for 48 hrs under dark condition by Annexin V-FITC/PI staining based flow cytometry analysis (reference value: 3.39%); type: functional
[22] = system: NCI-H460; assay: Induction of apoptosis in human NCI-H460 cells harboring PI3KCA mutation and overactive PI3K pathway assessed as late apoptotic cells at 0.4 uM incubated for 48 hrs under dark condition by Annexin V-FITC/PI staining based flow cytometry analysis (reference value: 2.27%); type: functional
[23] = biological target: T1, Phosphatidylinositol 4,5-bisphosphate 3-kinase catalytic subunit alpha isoform; assay: Inhibition of PI3Kalpha (unknown origin) using PIP2 as substrate incubated for 1 hr in presence of ATP under dark condition by ADP-Glo luminescent assay
[24] = system: NCI-H460; assay: Induction of apoptosis in human NCI-H460 cells harboring PI3KCA mutation and overactive PI3K pathway assessed as early apoptotic cells at 0.08 uM incubated for 48 hrs under dark condition by Annexin V-FITC/PI staining based flow cytometry analysis (reference value: 2.6%); type: functional
[25] = system: HGC-27; assay: as §2, with “dark condition” for “presence of irradiation with 365 nm UV light”; type: functional; details: dose 0.391-0.781 ng
[26] = system: HGC-27; assay: Inhibition of cell migration in human HGC-27 cells harboring PI3KCA mutation and overactive PI3K pathway assessed as reduction in migratory ability at 0.08 to 0.4 uM incubated for 16 hrs under dark condition by crystal violet staining based assay; type: functional; details: dose 0.08-0.4 µM
[27] = biological target: RAC-alpha serine/threonine-protein kinase (Homo sapiens) (UniProt P31749); assay: Inhibition of AKT phosphorylation at T308 residue in human HGC-27 cells harboring PI3KCA mutation and overactive PI3K pathway at 0.08 to 0.4 uM compound irradiated for 2 mins at 365 nm by Western blot analysis; type: cell-based; details: dose 0.08-0.4 µM
[28] = system: HGC-27; assay: Induction of apoptosis in human HGC-27 cells harboring PI3KCA mutation and overactive PI3K pathway assessed as late apoptotic cells at 0.4 uM incubated for 48 hrs under dark condition by Annexin V-FITC/PI staining based flow cytometry analysis (reference value: 3.39%); type: functional
[29] = system: HGC-27; assay: Induction of apoptosis in human HGC-27 cells harboring PI3KCA mutation and overactive PI3K pathway assessed as early apoptotic cells at 0.4 uM incubated for 48 hrs under dark condition by Annexin V-FITC/PI staining based flow cytometry analysis (reference value: 2.26%); type: functional
[30] = system: NCI-H460; assay: Induction of apoptosis in human NCI-H460 cells harboring PI3KCA mutation and overactive PI3K pathway assessed as early apoptotic cells at 0.4 uM incubated for 48 hrs under dark condition by Annexin V-FITC/PI staining based flow cytometry analysis (reference value: 2.6%); type: functional
[31] = system: HGC-27; assay: Inhibition of colony formation in human HGC-27 cells harboring PI3KCA mutation and overactive PI3K pathway assessed as reduction in number of colonies incubated for 10 days under dark condition by crystal violet staining based assay; type: functional, cell-based; details: dose 0.08-0.4 µM, time 10.0 day
[32] = biological target: T2, Ribosomal protein S6 kinase (Homo sapiens); assay: Inhibition of S6 phosphorylation in human HGC-27 cells harboring PI3KCA mutation and overactive PI3K pathway at 0.08 to 0.4 uM compound irradiated for 2 mins at 365 nm by Western blot analysis; type: cell-based; details: dose 0.08-0.4 µM
[33] = system: NCI-H460; assay: Induction of apoptosis in human NCI-H460 cells harboring PI3KCA mutation and overactive PI3K pathway assessed as late apoptotic cells at 0.08 uM incubated for 48 hrs under dark condition by Annexin V-FITC/PI staining based flow cytometry analysis (reference value: 2.27%); type: functional

- IC50 [1]: 0.00524 µM
- inhibition [3]: Active
- inhibition [5]: Dose-Dependent Effect
- inhibition [11]: Dose-Dependent Effect
- inhibition [15]: Active
- inhibition [16]: Dose-Dependent Effect
- inhibition [18]: Active
SMILES: COc1ncc(-c2cc(Oc3ccc(/N=N\c4ccc(Oc5cc(-c6cnc(OC)c(NS(=O)(=O)c7ccc(F)cc7F)c6)cc6c(C)ncnc56)cc4)cc3)c3ncnc(C)c3c2)cc1NS(=O)(=O)c1ccc(F)cc1F
- Activity [2]: 18.8%
- Activity [4]: 6.05%
- Activity [6]: 14.28%
- Activity [7]: 5.44%
- Activity [8]: 33.67%
- inhibition [9]: Dose-Dependent Effect
- inhibition [10]: Active
- Activity [12]: 66.74%
- Activity [13]: 26.4%
- Activity [14]: Active
- Activity [17]: 3.6%

- inhibition [19]: Active
- inhibition [5]: Dose-Dependent Effect
- IC50 [23]: 0.0177 µM
- inhibition [27]: Active
- inhibition [11]: Dose-Dependent Effect
- inhibition [32]: Active
- inhibition [16]: Dose-Dependent Effect
SMILES: COc1ncc(-c2cc(Oc3ccc(/N=N/c4ccc(Oc5cc(-c6cnc(OC)c(NS(=O)(=O)c7ccc(F)cc7F)c6)cc6c(C)ncnc56)cc4)cc3)c3ncnc(C)c3c2)cc1NS(=O)(=O)c1ccc(F)cc1F
- Activity [20]: 7.28%
- Activity [21]: 5.11%
- Activity [22]: 4.84%
- Activity [24]: 2.69%
- Activity [25]: Active
- inhibition [26]: Active
- Activity [28]: 15.95%
- Activity [29]: 14.86%
- Activity [30]: 2.36%
- inhibition [31]: Dose-Dependent Effect
- Activity [33]: 3.17%

— ChEMBL document CHEMBL5360518, “Discovery of a novel photoswitchable PI3K inhibitor toward optically-controlled anticancer activity” (Bioorg Med Chem, 2022)
